Experimental data from publication PMC7157554, “Anti-Trypanosomal Proteasome Inhibitors Cure Hemolymphatic and Meningoencephalic Murine Infection Models of African Trypanosomiasis” (Tropical Medicine and Infectious Disease, 2020).
Where two headings read alike, the source gives them in different places.

How the values were obtained:
T. brucei PSMB4^F24L = assay: Growth inhibition of T. brucei expressing F24L mutant 20S proteasome β4 subunit; type: cell-based, Trypanosoma brucei
Procedure: (§1) For determination of 50% growth inhibition, all compounds were dissolved in DMSO, and 200 nL of threefold serially diluted compounds were added into solid-bottom 384-well white plates (Greiner Bio-One, Kremsmunster, Austria) by an Echo 555 acoustic liquid-handling system. Forty microliters of 10^4 cells/mL of T. b. brucei parasites was added into each well, and the plates were incubated in a 5% CO2 incubator at 37 °C for 48 h. Viability of parasites were determined by measuring intracellular ATP levels, using CellTiter-Glo (CTG) luminescent cell viability reagent (Promega, Madison, Wisconsin WI, USA). The EC50 values were determined by using GraphPad Prism software. Growth inhibition assays for all clinical isolates were carried out as described earlier. All experiments had two technical replicates and three biological replicates. Appropriate statistical tests were used for evaluating significance, and mean ± SEM is represented in the tables.

T. brucei PSMB4^WT = assay: Growth inhibition of T. brucei expressing wild-type 20S proteasome β4 subunit; type: cell-based; details: Trypanosoma brucei, read-out: T. brucei PSMB4^WT EC50
Procedure: as §1

[1] = system: T. b. brucei (GVR35-VSL2); assay: Meningoencephalic mouse model (stage 2 HAT efficacy model, GVR35) with bioluminescence imaging; type: in vivo
Procedure: The GVR35 mouse CNS model mimics the second (meningoencephalic) stage of African trypanosomiasis. Female CD1 mice (~8 weeks old, from Charles River) were injected intraperitoneally (i.p.) with 3 × 10^4 T. b. brucei (GVR35-VSL2) bloodstream-form parasites. As controls, a group of three untreated mice and another group of three mice treated with diminazene aceturate (DA) were included. […] Mice treated with DA usually relapse after 42 days post-infection. […]
Blood parasitemia was quantified weekly from day 21/22, by microscopy of blood from the tail vein. Mice were imaged for bioluminescence using an in vivo imaging system (IVIS) prior to treatment on day 21/22, and weekly after treatment, as described previously. Briefly, mice, in groups of three, were injected i.p. with 150 mg of D-luciferin (Promega) per kilogram body weight in PBS and imaged after 10 min, using an IVIS Spectrum (PerkinElmer, Waltham, Massachusetts MA, USA). Living Image Software (PerkinElmer) was used for acquisition and analysis of bioluminescence imaging data. Bioluminescence in the same rectangular region of interest (ROI) on whole-body mouse images was quantified and is shown in total flux (photons per second). Images were cropped to the ROIs and composites of images from representative mice are shown. Uncured mice were euthanized within 1 or 2 days of parasite detection in the blood. Cured mice were euthanized between day 92 and 101 post-infection. All the results from the individual experiments were reported as number of mice cured over total number of mice treated. A Kaplan–Meier plot was used for representing the number of mice cured at different treatment doses.

T. b. brucei = assay: Growth inhibition of T. b. brucei strains BS221, BS221 (P2 KO), STIB950; type: cell-based; details: Trypanosoma brucei, mean ± SD
Procedure: The T. b. brucei strain Lister 427 (bloodstream form) parasites were continuously grown in complete HMI-9 medium supplemented with 10% Serum Plus and 10% heat-inactivated fetal bovine serum (FBS). All other parasite strains were cultured as described elsewhere.
as §1, with “Appropriate statistical tests were used for evaluating significance, and mean ± SEM is represented in the tables.” left out

T. b. rhodesiense = assay: Growth inhibition of T. b. rhodesiense strains; type: cell-based; details: Trypanosoma brucei, mean ± SD
T. b. gambiense = assay: Growth inhibition of T. b. gambiense strains; type: cell-based; details: Trypanosoma brucei, mean ± SD
[2] = stage 2 HAT mouse model; cited from earlier work

With CC(C)C[C@H](NC(=O)[C@H](Cc1ccccc1)NC(=O)c1cnccn1)B(O)O [Bortezomib, reference compound] as the compound, how does the “Shift in growth inhibition concentration, F24L mutant vs wild-type” value (T. brucei PSMB4^F24L) read?
Its value is “equipotent”.

What about the EC50 (T. brucei PSMB4^F24L; Trypanosoma brucei, read-out: T. brucei PSMB4^F24L EC50) of the same compound?
The EC50 was 1.1 ± 0.26 nM.

What about the EC50 (T. brucei PSMB4^WT) of the same compound?
Its EC50 is 0.94 ± 0.05 nM.

For N=C(N)c1ccc(/N=N/Nc2ccc(C(=N)N)cc2)cc1 [Diminazene, diminazene aceturate, reference compound], which “% Cured” value ([1]; 40 mg/kg QD) is on record?
The value was 0%.

What about the “Mean Day of Relapse” value ([1]; 40 mg/kg QD) of the same compound?
The value was 42 days post infection.

What about the “Mice Cured/Total” value ([1]; 40 mg/kg QD (control compound lacking brain penetration)) of the same compound?
The value was 0/3.

Which results are given for Nc1nc(N)nc(Nc2ccc([As]3SCC(CO)S3)cc2)n1 (stereo not shown) [Melarsoprol, reference compound]?
EC50 (T. b. brucei; STIB950, read-out: T. b. brucei EC50, strain STIB950): 16.9 ± 8.8 nM; EC50 (T. b. brucei; read-out: T. b. brucei EC50, strain BS221 (P2 KO)): 37.7 ± 14.8 nM; EC50 (T. b. brucei; read-out: T. b. brucei EC50, strain BS221): 4.7 ± 1.8 nM; EC50 (T. b. rhodesiense; RHODESIENSE / STIB900, read-out: T. b. rhodesiense EC50, strain STIB900): 3.9 ± 2 nM; EC50 (T. b. rhodesiense; RHODESIENSE / STIB900, read-out: T. b. rhodesiense EC50, strain STIB900 Mel^R (melarsoprol-resistant)): 95.5 ± 24 nM; EC50 (T. b. rhodesiense; RHODESIENSE / STIB900, read-out: T. b. rhodesiense EC50, strain STIB900 Pent^R (pentamidine-resistant)): 46.8 ± 19 nM; EC50 (T. b. gambiense; GAMBIENSE / STIB930, read-out: T. b. gambiense EC50, strain STIB930): 7.1 ± 2.7 nM; EC50 (T. b. gambiense; GAMBIENSE, read-out: T. b. gambiense EC50, strain K048): 10.2 ± 1.9 nM; EC50 (T. b. gambiense; GAMBIENSE, read-out: T. b. gambiense EC50, strain R130): 7.7 ± 3.1 nM

What does the source list for N=C(N)c1ccc(OCCCCCOc2ccc(C(=N)N)cc2)cc1 [Pentamidine, reference compound]?
EC50 (T. b. brucei; STIB950, strain STIB950, read-out: T. b. brucei EC50): 0.5 ± 0.2 nM; EC50 (T. b. brucei; strain BS221 (P2 KO), read-out: T. b. brucei EC50): 3.1 ± 0.4 nM; EC50 (T. b. brucei; strain BS221, read-out: T. b. brucei EC50): 0.3 ± 0.1 nM; EC50 (T. b. rhodesiense; RHODESIENSE / STIB900, strain STIB900 Mel^R (melarsoprol-resistant), read-out: T. b. rhodesiense EC50): 217 ± 86 nM; EC50 (T. b. rhodesiense; RHODESIENSE / STIB900, strain STIB900 Pent^R (pentamidine-resistant), read-out: T. b. rhodesiense EC50): 203 ± 54 nM; EC50 (T. b. gambiense; GAMBIENSE / STIB930, strain STIB930, read-out: T. b. gambiense EC50): 1.4 ± 0.9 nM; EC50 (T. b. gambiense; GAMBIENSE, strain K048, read-out: T. b. gambiense EC50): 33.9 ± 16 nM; EC50 (T. b. gambiense; GAMBIENSE, strain R130, read-out: T. b. gambiense EC50): 13.5 ± 4 nM

With CC1(C)OB(O)c2cc(NC(=O)c3ccc(F)cc3C(F)(F)F)ccc21 [acoziborole] as the compound, how does the Curative dose [2] read?
The Curative dose was 25 mg/kg.

Which Curative dose [2] does the source give for CSc1ccc(OCc2ncc([N+](=O)[O-])n2C)cc1 [fexinidazole] here?
Its Curative dose is 200 mg/kg.
